Results taken from patent US12458621B1, “Application of genipin beta-methyl derivative gen-17 in preparation of drug for prevention and treatment of acute severe pneumonia” (KUNMING MEDICAL UNIVERSITY, priority 2024, dated 2025).

Tests used:
Format in all cases: in vivo, Kunming mice
LPS-induced ALI mice = test: Total cell count in BALF
Protocol: (§1) A total of 144 SPF-grade healthy Kunming mice, aged 5-7 weeks and weighing 18-22 g, are weighed and randomly allocated into six experimental groups: control group (NS), model group (LPS), dexamethasone group (DEX, […] per kilogram abbreviated as mg/kg), genipin beta-methyl derivative low-dose group (12.5 mg/kg), genipin beta-methyl derivative medium-dose group (25 mg/kg), and genipin beta-methyl derivative high-dose group (50 mg/kg), 24 animals per group, in which 12 animals are used to take lung tissue for the detection of other indicators, and another 12 animals are used to collect BALF.
All mice are gavaged with a same volume of 0.9% normal saline once a day in the NS group and the LPS group, DEX solution (0.39 mg/kg) is gavaged once a day in the DEX group, low-dose Gen-17 solution (12.5 mg/kg) is gavaged once a day in the medium-dose Gen-17 group, medium-dose Gen-17 solution (25 mg/kg) is gavaged once a day in the high-dose Gen-17 group, and high-dose Gen-17 solution (50 mg/kg) is gavaged once a day in the high-dose Gen-17 group. The dosage is converted according to the weight of the mice, and the gavage volume is 20 milliliters per kilogram (mL/kg), and the gavage is continued for 3 days. One hour after the gavage on the third day, the ALI model is established by tracheal instillation of LPS solution. The specific experimental procedures are as follows. • (1) Before the operation, the mice are anesthetized by intraperitoneal injection of 1% sodium pentobarbital (30 mg/kg) according to their body weight. • (2) Limbs of anesthetized mice are fixed with rubber bands, teeth are wired with thin threads, and neck skin is disinfected with 75% alcohol. • (3) A subcutaneous tissue is separated along a longitudinal incision in a middle of the mouse neck until a cartilage ring appeared in an exposed trachea. • (4) A microinjector is inserted into the trachea in parallel towards a proximal end for about 1 centimeter (cm). Sterile NS is slowly dripped into the trachea of the control group, and LPS is dripped into the trachea of the other groups. • (5) After pulling out the microinjector, the mice are upright immediately, rotated and shaken evenly for 2 minutes (min), then the neck wound is sutured, and the state of the mice is observed. After the mice are awake, they are raised as usual. 2.3 Treatment of Experimental Animals and Collection of Lung Tissue Specimens
BALF is collected 24 hours after the establishment of the animal model. First, the remaining 12 mice in each group are weighed, and then BALF is extracted. The extracted BALF is used for total cell count, total protein content determination and enzyme-linked immunosorbent assay (ELISA) determination of IL-1B, IL-6 and TNF-α in BALF. The specific experimental procedures are as follows. • (1) After weighing, the mice are anesthetized by intraperitoneal injection of pentobarbital sodium according to their weight; • (2) When the tail root, hind limbs, eyelash reflex and other activities of mice disappear, and the mice breathe slowly and evenly, the limbs and teeth of mice are fixed, the neck skin of mice is disinfected with 75% alcohol, and the neck tissue is opened longitudinally, so that the tracheal cartilage ring is exposed. Tracheal puncture is performed with a 19G trocar catheter, the needle is inserted for about 1 cm, the needle core is pulled out, a 1 ml syringe is connected, and precooled normal saline (0.8 mL/time, repeat 2 times) is slowly injected. […]

TNF-α = TNF-α content in BALF by ELISA
Protocol: as §1
All mice are gavaged with a same volume of 0.9% normal saline once a day in the NS group and the LPS group, DEX solution (0.39 mg/kg) is gavaged once a day in the DEX group, low-dose Gen-17 solution (12.5 mg/kg) is gavaged once a day in the medium-dose Gen-17 group, medium-dose Gen-17 solution (25 mg/kg) is gavaged once a day in the high-dose Gen-17 group, and high-dose Gen-17 solution (50 mg/kg) is gavaged once a day in the high-dose Gen-17 group. The dosage is converted according to the weight of the mice, and the gavage volume is 20 milliliters per kilogram (mL/kg), and the gavage is continued for 3 days. One hour after the gavage on the third day, the ALI model is established by tracheal instillation of LPS solution. […]

IL-1β = IL-1β mRNA in lung tissue by qRT-PCR; conditions: Gen-17 (12.5, 25, 50 mg/kg gavage) compared with LPS group (P<0.001)
Protocol: as §1, with “BALF. […]” for “BALF.”
(§2) Samples are collected 24 hours after the animal model is established. […] Lung tissues are collected and the whole lung wet weight is measured. […] After tidying, the lungs are photographed, excess tissues such as the trachea are cleared away, and the wet weight of the whole lung is measured to calculate the lung index. • (3) The upper lobe of the left lung is fixed in 4% neutral paraformaldehyde, fixed for 24 hours, paraffin-embedded and sectioned for HE staining. • (4) The remaining lung tissues are put into centrifugal tubes separately, quickly frozen in liquid nitrogen, and then stored at −80° C. after the experiment, which is used for the detection of MDA, SOD, western blotting (WB) and reverse transcription polymerase chain reaction (RT-PCR). […]

[1] = test system: ERK phosphorylated protein; test: ERK phosphorylated protein in lung tissue by WB
Protocol: as §1, with “BALF. […]” for “BALF.”
as §2

SOD = SOD activity in lung tissue; conditions: compared with LPS group
Protocol: (§3) The dosage is converted according to the weight of the mice, and the gavage volume is 20 milliliters per kilogram (mL/kg), and the gavage is continued for 3 days. One hour after the gavage on the third day, the ALI model is established by tracheal instillation of LPS solution. […] After the mice are awake, they are raised as usual. 2.3 Treatment of Experimental Animals and Collection of Lung Tissue Specimens
(§4) Samples are collected 24 hours after the animal model is established. The mice are weighed and 12 mice in each group are sacrificed. Lung tissues are collected and the whole lung wet weight is measured. […] After tidying, the lungs are photographed, excess tissues such as the trachea are cleared away, and the wet weight of the whole lung is measured to calculate the lung index. • (3) The upper lobe of the left lung is fixed in 4% neutral paraformaldehyde, fixed for 24 hours, paraffin-embedded and sectioned for HE staining. • (4) The remaining lung tissues are put into centrifugal tubes separately, quickly frozen in liquid nitrogen, and then stored at −80° C. after the experiment, which is used for the detection of MDA, SOD, western blotting (WB) and reverse transcription polymerase chain reaction (RT-PCR). […]
The lung tissue is taken out from −80° C., and its weight is accurately measured.

MDA = MDA content in lung tissue; conditions: after drug treatment, compared with LPS group
Protocol: as §1, with “BALF. […]” for “BALF.”
as §2

Keap1 [2] = test: Keap1 gene expression in lung tissue by qRT-PCR
Protocol: as §1, with “BALF. […]” for “BALF.”
as §2

Keap1 [3] = test: Keap1 protein in lung tissue by WB
Protocol: as §3, §4
The lung tissue is taken out from −80° C., and its weight is accurately measured. […]

Q: With `COC(=O)C1=CO[C@@H](OC)[C@@H]2C(COC(=O)c3cccc(Br)c3)=CC[C@H]12` [Gen-17, genipin beta-methyl derivative] as the molecule, how does the “total cell counts in BALF” value (LPS-induced ALI mice; Gen-17 groups (12.5, 25, 50 mg/kg gavage) compared with LPS group (P<0.001)) read?
A: decreased significantly

Q: And the “total cell counts in BALF” value (LPS-induced ALI mice; low-dose Gen-17 12.5 mg/kg gavage, compared with DEX group (P<0.01))?
A: significantly increased

Q: And the “total cell counts in BALF” value (LPS-induced ALI mice; low-dose Gen-17 12.5 mg/kg gavage, compared with NS group (P<0.001))?
A: significantly increased

Q: And the “total cell counts in BALF” value (LPS-induced ALI mice; middle-dose Gen-17 25 mg/kg gavage, compared with DEX group (P<0.01))?
A: significantly increased

Q: What about the “total cell counts in BALF” value (LPS-induced ALI mice; middle-dose Gen-17 25 mg/kg gavage, compared with NS group (P<0.001)) of the same molecule?
A: significantly increased

Q: What about the “reduction of the TNF-α level in BALF” value (TNF-α; Gen-17 compared with DEX group (P>0.05)) of the same molecule?
A: no statistically significant difference

Q: What about the “content of TNF-α in BALF” value (TNF-α; Gen-17 groups (12.5, 25, 50 mg/kg gavage) compared with LPS group) of the same molecule?
A: reduce the contents of inflammatory cytokines

Q: What about the “mRNA expression of IL-1β in lung tissue” value (IL-1β) of the same molecule?
A: significantly reduce the expression

Q: And the “expression of ERK phosphorylated protein in lung tissue” value ([1]; after drug treatment, compared with LPS group)?
A: down-regulate the expression of p38, ERK and JNK proteins

Q: What about the “expression of ERK phosphorylated protein in lung tissue” value ([1]; low-dose Gen-17 12.5 mg/kg gavage, compared with DEX group) of the same molecule?
A: statistically significant (P<0.05)

Q: And the “SOD activity in lung tissue” value (SOD; after drug treatment)?
A: significantly increase the SOD activity

Q: What about the “SOD activity in lung tissue (increase)” value (SOD; high-dose Gen-17 50 mg/kg gavage) of the same molecule?
A: statistical significance (P<0.05)

Q: And the “MDA content in the lung tissue homogenate” value (MDA)?
A: reduce the MDA content

Q: And the “expression of Keap1 gene in lung tissue” value (Keap1 [2]; Gen-17 groups (12.5, 25, 50 mg/kg gavage) compared with DEX group (P<0.001))?
A: significantly increased

Q: What about the “expression of Keap1 gene in lung tissue” value (Keap1 [2]; Gen-17 groups (12.5, 25, 50 mg/kg gavage) compared with NS group) of the same molecule?
A: significantly increased (P<0.001)

Q: And the “expression of Keap1 protein in lung tissue, overall result” value (Keap1 [3]; Gen-17 12.5, 25, 50 mg/kg gavage, ALI mice)?
A: downregulate the expression of Keap1 protein

Q: What about the “expression of Keap1 protein in lung tissue (decrease)” value (Keap1 [3]; high-dose Gen-17 50 mg/kg gavage, compared with LPS group) of the same molecule?
A: statistically significant (P<0.001)
